Test results from patent US8211929B2, “Pyrimidine derivatives as kinase modulators and method of use” (Exelixis, Inc., priority 2004, dated 2012).
Read-outs that look alike come from different tables or passages of the source.

Columns and labels:
[1] = target: T1, (Homo sapiens, UniProt P08069); experiment: IGF1R kinase assay (LCCA), IGF 0P; type: biochemical
T1 construct: human IGF1R kinase domain residues M954-C1367; made in house; host or cells: baculovirus expression (insect cells)
How it was run: (§1)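 Read-out is percent ATP remaining, detected by luciferase-luciferin luminescence after a 2 h ambient reaction. Reaction contained 4 nM IGF1R kinase domain (residues M954-C1367, baculovirus-made), 3 μM ATP (near KM), 4 μM poly EY, pH 7.5 with Mg2+/Mn2+. Ten inhibitor concentrations; IC50 by Hill-type curve fit.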

IGF 3P = target: T2, IGF 3P (Homo sapiens, UniProt P08069); experiment: IGF1R kinase assay (LCCA), IGF 3P; type: biochemical
T2 construct: human IGF1R kinase domain residues M954-C1367; made in house; host or cells: baculovirus expression (insect cells)
T2 sequence (P08069 954-1367): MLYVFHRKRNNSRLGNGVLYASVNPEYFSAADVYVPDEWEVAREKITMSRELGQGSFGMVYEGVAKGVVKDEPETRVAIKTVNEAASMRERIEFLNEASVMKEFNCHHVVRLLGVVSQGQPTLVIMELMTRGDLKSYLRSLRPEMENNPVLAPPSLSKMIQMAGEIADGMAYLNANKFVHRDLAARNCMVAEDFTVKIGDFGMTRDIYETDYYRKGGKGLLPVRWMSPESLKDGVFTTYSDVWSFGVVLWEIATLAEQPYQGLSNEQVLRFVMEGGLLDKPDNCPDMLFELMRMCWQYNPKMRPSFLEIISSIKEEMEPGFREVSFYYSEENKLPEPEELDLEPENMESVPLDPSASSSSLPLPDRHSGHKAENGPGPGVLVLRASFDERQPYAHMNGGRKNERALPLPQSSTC
How it was run: as §1

T1 sequence (P08069 954-1367): as above

Compound | IC50 ([1]; IGF1R kinase LCCA assay) | IC50 (IGF 3P; IGF1R kinase LCCA assay) | other results
Brc1cnc(Nc2cccc3ccccc23)nc1Nc1cc(C2CC2)[nH]n1 [Example 130] | 50 to 500 nM | 50 to 500 nM | –
Nc1ncnc2c1c(-c1cccc(OCc3ccccc3)c1)cn2CC1CC2CNCC2C1 (centres unmarked) [Example 358] | > 5000 nM | > 5000 nM | –
COc1cc(Nc2nccc(Nc3cc(C4CC4)n[nH]3)n2)cc(OC)c1 [Example 203] | 500 to 5000 nM | 500 to 5000 nM | –
Cc1cc(Nc2cc(C3CC3)[nH]n2)nc(NCc2ccco2)n1 [Example 563] | 500 to 5000 nM | 500 to 5000 nM | –
CC(C)c1cc(CNc2nc(Nc3cc(C4CC4)[nH]n3)cc(N3C[C@H]4C[C@@H]3CN4Cc3ccccc3)n2)on1 [Example 636, N^4-(5-cyclopropyl-1H-pyrazol-3-yl)-N^2-{[3-(1-methylethyl)isoxazol-5-yl]methyl}-6-[(1R,4R)-5-(phenylmethyl)-2,5-diazabicyclo[2.2.1]hept-2-yl]pyrimidine-2,4-diamine] | – | – | IC50 ([1]; IGF 0P): 50 to 500 nM; IC50 (IGF 3P; IGF 3P): < 50 nM
Cc1cc(Nc2ccc3ccccc3c2)nc(NCc2cc(-c3ccccc3)no2)n1 [Example 299] | > 5000 nM | > 5000 nM | –
CC(C)(C)OC(=O)NCc1ccc(Nc2ncc(Br)c(Nc3cc(C4CC4)[nH]n3)n2)cc1 [Example 92] | 50 to 500 nM | 50 to 500 nM | –
Brc1cnc(Nc2ccc(N3CCOCC3)cc2)nc1Nc1cc(-c2ccco2)[nH]n1 [Example 80] | 50 to 500 nM | 50 to 500 nM | –
Cc1cc(Nc2cc(C3CC3)[nH]n2)nc(NCc2cc(C3CCCCC3)no2)n1 [Example 82] | 50 to 500 nM | 50 to 500 nM | –
CN(C)CCOc1cc(Nc2cc(C3CC3)[nH]n2)nc(NCc2cc(-c3ccncn3)no2)n1 [Example 638, N^4-(5-cyclopropyl-1H-pyrazol-3-yl)-6-{[2-(dimethylamino)ethyl]oxy}-N^2-[(3-pyrimidin-4-ylisoxazol-5-yl)methyl]pyrimidine-2,4-diamine] | – | – | IC50 [1]: 50 to 500 nM; IC50 (IGF 3P): < 50 nM
Cc1c(Br)cccc1Nc1ncc(Br)c(Nc2cc(C3CC3)[nH]n2)n1 [Example 95] | 50 to 500 nM | 50 to 500 nM | –
COc1cc(Nc2ncc(Br)c(Nc3cc(C)on3)n2)cc(OC)c1 [Example 53] | 50 to 500 nM | < 50 nM | –
Cc1cc(Nc2ccc3ccccc3c2)nc(Nc2ccc(N3CCOCC3)cc2)n1 [Example 297] | > 5000 nM | > 5000 nM | –
CC(C)c1cc(Nc2nc(NCc3cc(-c4ccccc4)no3)ncc2Br)[nH]n1 [Example 10] | 50 to 500 nM | 50 to 500 nM | –
COc1cc(Nc2ncc(Br)c(Nc3cc(C4CC4)n[nH]3)n2)cc(C(F)(F)F)c1 [Example 258] | > 5000 nM | > 5000 nM | –
Brc1ccc(Br)c(Nc2ncc(Br)c(Nc3cc(C4CC4)n[nH]3)n2)c1 [Example 172] | 50 to 500 nM | 500 to 5000 nM | –
FC(F)(F)Oc1ccccc1Nc1ncc(Br)c(Nc2cc(C3CC3)n[nH]2)n1 [Example 84] | 50 to 500 nM | 50 to 500 nM | –
CCN(CC)CCCNc1nc(Nc2ccccc2Cl)nc(Nc2cc(C3CC3)n[nH]2)c1Cl [Example 66] | 50 to 500 nM | < 50 nM | –
Fc1cc(F)cc(Nc2ncc(Br)c(Nc3cc(C4CC4)n[nH]3)n2)c1 [Example 313] | > 5000 nM | > 5000 nM | –
CN1CCN(C(=O)c2cc(Nc3cc(C4CC4)[nH]n3)nc(NCc3cc(-c4ccccc4)no3)n2)CC1 [Example 522] | 50 to 500 nM | < 50 nM | –
Cc1cc(Nc2cc(-c3ccco3)[nH]n2)nc(NCc2cc(-c3ccccc3)no2)n1 [Example 246] | 500 to 5000 nM | 500 to 5000 nM | –
COC(=O)C1CCc2cc(Nc3nc(C)cc(Nc4cc(C5CC5)n[nH]4)n3)ccc2N1 (centres unmarked) [Example 537] | 500 to 5000 nM | 500 to 5000 nM | –
CC(=O)NCC1CC(n2cc(-c3cccc(OCc4ccccc4)c3)c3c(NC(C)=O)ncnc32)C1 (centres unmarked) [Example 346] | > 5000 nM | 500 to 5000 nM | –
Clc1cc(Nc2ncc(Br)c(Nc3cc(C4CC4)n[nH]3)n2)cc(Cl)c1Cl [Example 325] | > 5000 nM | > 5000 nM | –
CC(C)c1cc(CNc2nc(Nc3cc(C4CC4)[nH]n3)cc(N3CCN(S(C)(=O)=O)CC3)n2)on1 [Example 615, N^4-(5-cyclopropyl-1H-pyrazol-3-yl)-N^2-{[3-(1-methylethyl)isoxazol-5-yl]methyl}-6-[4-(methylsulfonyl)piperazin-1-yl]pyrimidine-2,4-diamine] | – | – | IC50 [1]: 50 to 500 nM; IC50 (IGF 3P): < 50 nM
